Data as given in patent publication US8575103B2, “Peptides and methods for inhibiting G alpha protein signaling” (The Board of Trustees of the University of Illinois, priority 2009, dated 2013).
“Also recorded” adds a separate entry of the source. Where no end group is shown, it is not given here. The star is where a group is joined. Myristoyl = CCCCCCCCCCCCCC(=O)*

Key:
α11bβ3 integrin [1] = assay: platelet α11bβ3 integrin activation, FITC-PAC1 antibody binding by flow cytometry; type: cell-based, human; settings: single substitution Arg232 to Ala versus parent G13SR2pep
Experimental: The platelet count in human PRP was adjusted to 1×10^6 platelets/ml. The platelets were then labeled with FITC-conjugated PAC1 antibody against activated α11bβ3 integrin, and the samples were analyzed by flow cytometry in a Beckman Coulter CyAn II Flow Cytometer. Trace (a) depicts resting platelets labeled with FITC-PAC-1 antibody. Trace (b) depicts platelets stimulated with 0.5 μM U46619 and labeled with FITC-PAC1 antibody. Trace (c) depicts platelets incubated with 500 μM of the Random Peptide (SEQ ID NO:9), followed by 0.5 μM U46619 stimulation and FITC-PAC1 labeling. Trace (d) depicts platelets incubated with 150 μM of the G13SR2pep, followed by 0.5 μM U46619 stimulation and FITC-PAC1 labeling.
Subsequent experiments examined the effect of G13SR2pep, (SEQ ID NO:5) on human platelet α11bβ3 integrin activation as measured by FITC-PAC-1 antibody binding.

human platelets [2] = assay: human platelet aggregation in platelet rich plasma (PRP); type: cell-based
human platelets [3] = assay: as above; type: cell-based; settings: for effect on human platelet aggregation induced by U46619 (TP): 0.5 μM U46619
Experimental: Trace (a) is control data from human platelet rich plasma (PRP) incubated with 500 μM of the Random Peptide (Myr-Leu-Ile-Arg-Pro-Tyr-Leu-His-Arg-Ala-Thr-Lys-Glu-Gly; SEQ ID NO:6), prior to stimulation with 15 μM of the PAR1 receptor agonist TRAP1. Trace (b) depicts data wherein PRP was treated with 30 μM Myr-G13SR1pep-2 prior to stimulation with 15 μM TRAP1. Trace (c) depicts data wherein PRP was treated with 50 μM Myr-G13SR1pep-2 prior to stimulation with 15 μM TRAP1. Trace (d) is control data showing PRP treated with 500 μM of the Random Peptide (SEQ ID NO:6) prior to stimulation with the 0.5 μM thromboxane receptor agonist U46619. Trace (e) depicts data wherein PRP was treated with 500 μM Myr-G13SR1pep-2 prior to stimulation with 0.5 μM U46619. Trace (f) is control data showing PRP treated with 500 μM of the Random Peptide (SEQ ID NO:6) prior to stimulation with 10 μM of the P2Y1/P2Y12 receptor agonist ADP. […] Trace (h) depicts control data showing PRP treated with 500 μM of the Random Peptide (SEQ ID NO:6) prior to stimulation with 40 μM of the PAR4 receptor agonist TRAP4. Trace (i) depicts data wherein PRP was treated with 500 μM Myr-G13SR1pep-2 prior to stimulation with 40 μM TRAP4.
Trace (a) depicts control data showing PRP treated with 500 μM of the Random Peptide (Myr-Gln-Arg-Ile-Arg-Phe-Cys-Ser-Glu-Gly-Val-Glu-Lys-Gly-His-Trp-Asn-Arg; SEQ ID NO:7) prior to stimulation with 15 μM of the PAR1 receptor agonist TRAP1. Trace (b) depicts data wherein PRP was treated with 500 μM Myr-GqSR2pep prior to stimulation with 15 μM TRAP1. Trace (c) is control data showing PRP treated with 500 μM Random Peptide (SEQ ID NO:7) prior to stimulation with the 0.5 μM of the thromboxane receptor agonist U46619. Trace (d) depicts data wherein PRP was treated with 50 μM Myr-GqSR2pep, prior to stimulation with 0.5 μM U46619. Trace (e) depicts data wherein PRP was treated with 150 μM Myr-GqSR2pep prior to stimulation with 0.5 μM U46619. Trace (f) is control data showing PRP treated with 500 μM Random Peptide (SEQ ID NO:7) prior to stimulation with 10 μM ADP. Trace (g) depicts data wherein PRP was treated with 50 μM Myr-GqSR2pep prior to stimulation with 10 μM ADP. Trace (h) depicts data wherein PRP was treated with 150 μM Myr-GqSR2pep prior to stimulation with 10 μM ADP. Trace (i) is control data showing PRP treated with 500 μM Random Peptide (SEQ ID NO:7) prior to stimulation with 40 μM of the PAR4 receptor agonist TRAP4. Trace (j) depicts data wherein PRP was treated with 150 μM Myr-GqSR2pep prior to stimulation with 40 μM of TRAP4.
Trace (a) is control data showing PRP treated with 500 μM of the Random Peptide (Myr-Gly-Ile-His-Glu-Trp-Glu-Val-Gly-Ser-Phe-Lys-Gly-Cys-Gln-Lys-Arg-Arg; SEQ ID NO:8) prior to stimulation with 15 μM of the PAR1 receptor agonist TRAP1. Trace (b) depicts data wherein PRP was treated with 500 μM Myr-GiSR2pep prior to stimulation with 15 μM TRAP1. Trace (c) is control data showing PRP treated with 500 μM Random Peptide (SEQ ID NO:8) prior to stimulation with the 0.5 μM of the thromboxane receptor agonist U46619. Trace (d) depicts data wherein PRP was treated with 500 μM Myr-GiSR2pep prior to stimulation with 0.5 μM U46619. Trace (e) is control data showing PRP treated with 500 μM Random Peptide (SEQ ID NO:8) prior to stimulation with 10 μM ADP. Trace (f) depicts data wherein PRP was treated with 150 μM Myr-GiSR2pep, prior to stimulation with 10 μM ADP. Trace (g) depicts data wherein PRP was treated with 500 μM Myr-GiSR2pep prior to stimulation with 10 μM ADP. Trace (h) is control data showing PRP treated with 500 μM Random Peptide prior (SEQ ID NO:8) to stimulation with 40 μM of the PAR4 receptor agonist TRAP4. Trace (i) depicts data wherein PRP was treated with 500 μM Myr-GiSR2pep prior to stimulation with 40 μM of TRAP4 […]

CD1 mice = assay: bleeding time in mice after intravenous administration; type: in vivo; settings: 100 μl of 3.7 mM intravenously via tail vein, tail cut five minutes after administration
Experimental: Briefly, CD1 mice (25 grams) were anesthetized with sodium pentobarbital, and either 100 μl of vehicle or 100 μl of a vehicle solution containing 3.7 mM of each peptide or aspirin was administered intravenously via the tail vein. Five minutes following administration, the tail was cut 0.5 cm from the tip and immersed in PBS buffer (pH 7.4; 37EC). Cessation of bleeding was observed visually and the total bleeding time was recorded.

α11bβ3 integrin [4] = target: T1, α11bβ3 integrin (Homo sapiens, UniProt P05106+P08514+Q9Y490); assay: peptide affinity column with solubilized human platelets, western blot for α11bβ3; type: binding; settings: immunoblot, bands at 130 kD and 115 kD
T1 construct: detected two bands, one at 130 kD and the other at 115 kD in solubilized human platelets; endogenous in cells; host or cells: solubilized human platelets
From the text: (§1) On this basis, subsequent experiments examined whether G13SR2pep peptide (SEQ ID NO:5) does indeed directly interact with α11bβ3 and/or one of its associated proteins in human platelets. In this respect, platelet α11bβ3 integrin is known to exist in a complex with two cytoplasmic proteins, i.e., talin and kindlin-3 (Tadokoro, et al. (2003) Science 302:103-6; Moser, et al. (2008) Nature Med. 14:325-30). To determine whether G13SR2pep, (SEQ ID NO:5) interacts with any of these proteins (or with the entire α11bβ3, talin, kindlin-3 complex), peptide affinity columns using G13SR2pep (SEQ ID NO:5) were employed. The affinity purified protein(s) from solubilized human platelets that specifically bound to the G13SR2pep peptide were eluted, and analyzed by western blot for α11bβ3 integrin, talin and kindlin-3. In similar experiments, the eluates from a peptide column using the G13SR2-Random Peptide (SEQ ID NO:9) were also analyzed. Immunoblot analysis with the α11bβ3 antibodies (Abcam) detected two bands, one at 130 kD and the other at 115 kD in solubilized human platelets as well as in the elution fraction obtained from the G13SR2pep (SEQ ID NO:5) affinity column. […] This was supported by similar experiments using talin antibodies and the kindlin 3 antibody (Abcam).

talin = target: T2, talin (Homo sapiens, UniProt Q9Y490); assay: peptide affinity column with solubilized human platelets, western blot for talin; type: binding; settings: solubilized human platelets, immunoblot; whole talin (220 kD), talin head domain (47 kD)
T2 construct: also purified whole talin (220 kD), the talin head domain (47 kD) and kindlin 3 (72 kD); endogenous in cells; host or cells: solubilized human platelets
From the text: as §1
Thus, the binding of G13SR2pep (SEQ ID NO:5) to the talin head domain serves as the basis for the ability of G13SR2pep to inhibit α11bβ3 integrin activation and platelet aggregation. As such, peptides or specific compounds fashioned to mimic or modify the switch region interaction with talin, α11bβ3 integrin or other α11bβ3 integrin-associated proteins would have profound effects on thrombosis and other integrin-linked disease processes.

kindlin-3 = target: T3, kindlin-3 (Homo sapiens, UniProt Q86UX7); assay: peptide affinity column with solubilized human platelets, western blot for kindlin-3; type: binding; settings: immunoblot, kindlin 3 (72 kD)
T3 construct: also purified whole talin (220 kD), the talin head domain (47 kD) and kindlin 3 (72 kD); endogenous in cells; host or cells: solubilized human platelets
From the text: as §1

[5] = PRP, 500 μM peptide, 15 μM TRAP1
[6] = PRP, 500 μM peptide, 40 μM TRAP4

T2 sequence (Q9Y490 1-433): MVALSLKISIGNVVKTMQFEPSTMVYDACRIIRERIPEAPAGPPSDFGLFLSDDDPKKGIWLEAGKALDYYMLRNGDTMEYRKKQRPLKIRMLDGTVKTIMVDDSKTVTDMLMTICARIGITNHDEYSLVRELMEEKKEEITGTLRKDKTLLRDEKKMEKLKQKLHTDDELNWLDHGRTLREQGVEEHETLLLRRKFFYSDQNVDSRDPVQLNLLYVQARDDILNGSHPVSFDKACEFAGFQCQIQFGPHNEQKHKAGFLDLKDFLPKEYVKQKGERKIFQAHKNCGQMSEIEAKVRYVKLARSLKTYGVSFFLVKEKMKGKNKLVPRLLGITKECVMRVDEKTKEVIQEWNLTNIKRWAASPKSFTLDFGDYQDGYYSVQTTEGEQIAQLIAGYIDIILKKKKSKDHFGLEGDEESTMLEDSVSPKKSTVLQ

Compound: VGGQRSERKAWFECFDS [G13SR2mutant pep, G13SR2pep with single substitution at amino acid 232 from Arg to Ala, reference compound]
- ability to block integrin activation (α11bβ3 integrin [1]): completely eliminated the ability
- ability to block platelet activation (human platelets [2]; single substitution Arg232 to Ala versus parent G13SR2pep): completely eliminated the ability

Compound: Myr-Leu-Leu-Ala-Arg-Arg-Pro-Thr-Ala-Gly-Ile-His-Glu-Tyr (Myristoyl-LLARRPTAGIHEY) [Myr-G13SR1pep-2, myristoylated Gα13 switch region 1 peptide, Lys changed to Ala]
- effect on human platelet aggregation induced by U46619 (TP) (human platelets [3]; PRP, 500 μM peptide): no measurable effect
- effect on human platelet aggregation induced by ADP (human platelets [3]; PRP, 500 μM peptide, 10 μM ADP): no measurable effect
- effect on human platelet aggregation induced by TRAP1 (PAR1) (human platelets [3]; [5]): no measurable effect
- effect on human platelet aggregation induced by TRAP4 (PAR4) (human platelets [3]; [6]): no measurable effect
- inhibition of PAR1-induced human platelet aggregation (human platelets [3]; PRP, 30-50 μM peptide, 15 μM TRAP1): progressive inhibition; also recorded: blocked
- potency relative to the original peptide (Myr-G13SR1pep) for inhibition of PAR1-induced human platelet aggregation (human platelets [3]; human PRP): ten-fold increased potency
- bleeding time (CD1 mice): increased bleeding times; also recorded: substantially increases

Compound: GFDEWEVSFKGCQRRSR [Random Peptide (SEQ ID NO:9), random peptide control for G13SR2pep, reference compound]
- α11bβ3 in affinity column eluate (interaction with peptide) (α11bβ3 integrin [4]): did not reveal the presence
- talin in affinity column eluate (talin): did not reveal the presence
- kindlin 3 in affinity column eluate (kindlin-3): did not reveal the presence
- inhibition of human platelet aggregation stimulated by U46619 (human platelets [2]; PRP, 75-150 μM G13SR2pep (Random Peptide 500 μM), 0.5 μM U46619): without effect
- inhibition of human platelet aggregation stimulated by ADP (human platelets [2]; PRP, 75-150 μM G13SR2pep (Random Peptide 500 μM), 10 μM ADP): without effect
- inhibition of human platelet aggregation stimulated by TRAP1 (human platelets [2]; PRP, 75-150 μM G13SR2pep (Random Peptide 500 μM), 15 μM TRAP1): without effect
- inhibition of human platelet aggregation stimulated by TRAP4 (human platelets [2]; PRP, 75-150 μM G13SR2pep (Random Peptide 500 μM), 50 μM TRAP4): without effect

Compound: CC(=O)Oc1ccccc1C(=O)O [ASA, aspirin, reference compound]
- bleeding time (CD1 mice): increase

Compound: Myr-Val-Gly-Gly-Gln-Arg-Ser-Glu-Arg-Lys-Lys-Trp-Ile-His-Cys-Phe-Glu-Gly (Myristoyl-VGGQRSERKKWIHCFEG) [Myr-Gi SR2pep, myristoylated Gαi switch region 2 peptide]
- effect on human platelet aggregation induced by U46619 (TP) (human platelets [3]; PRP, 500 μM peptide): without affecting
- effect on human platelet aggregation induced by TRAP1 (PAR1) (human platelets [3]; [5]): without affecting
- effect on human platelet aggregation induced by TRAP4 (PAR4) (human platelets [3]; [6]): without affecting
- inhibition of ADP-induced aggregation (human platelets [3]; PRP, 150-500 μM peptide, 10 μM ADP): dose-dependent (150-500 μM) inhibition

Compound: Myr-Val-Gly-Gly-Gln-Arg-Ser-Glu-Arg-Arg-Lys-Trp-Ile-His-Cys-Phe-Glu-Asn (Myristoyl-VGGQRSERRKWIHCFEN) [Myr-GqSR2pep, myristoylated Gαq switch region 2 peptide]
- effect on human platelet aggregation induced by TRAP1 (PAR1) (human platelets [3]; [5]): ineffective
- inhibition of human platelet aggregation induced by PAR4 receptors (human platelets [3]; PRP, 50-150 μM peptide, 40 μM TRAP4): dose-dependent inhibition
- inhibition of human platelet aggregation induced by TP receptors (human platelets [2]; PRP, 50-150 μM peptide, 0.5 μM U46619): dose-dependent inhibition
- inhibition of human platelet aggregation induced by ADP receptors (human platelets [2]; PRP, 50-150 μM peptide, 10 μM ADP): dose-dependent inhibition

Compound: RSERKRWFECFD [G13SR2pep-truncated, truncated version of the G13 Switch Region 2 peptide]
- inhibition of human platelet aggregation compared with full length G13SR2pep (human platelets [2]; PRP, 150 μM peptide, 15 μM TRAP1 or 0.5 μM U46619 (FIG. 5)): inhibited human platelet aggregation with the same potency
